{"source": "patent US20220411448A1", "about": "“CHROMENE-4-ONE DERIVATIVES AS BRAIN-DERIVED NEUROTROPHIC FACTOR (BDNF) MIMETICS” (FLORATEK PHARMA AG, priority 2019, published 2022)", "key": {"[1]": {"tested_on": "IL-6", "experiment": "LPS stimulation of BV-2 microglia: IL-6", "format": "cell-based, murine", "conditions": "between 0.3 and 3 μM, BV2, LPS 500 ng/ml, 24 h", "method": "The murine microglial cell line BV-2 was grown in DMEM medium supplemented with 10% FCS, 1% penicillin/streptomycin and 2 mM L-glutamine (culture medium). For LPS stimulation assay, 10000 BV-2 cells per well (uncoated 96 well plates) were plated and after 24 hours, medium was changed to serum-free treatment medium (DMEM, 2 mM L-glutamine) and cells were maintained in treatment medium for the remaining culture period. 1 h after changing cells to treatment medium, the test items were added 1 hour before LPS stimulation (Sigma-Aldrich; L6529; 1 mg/ml stock in ddH2O, final concentration in well: 500 ng/ml (dilutions in medium)). Cells treated with vehicle, cells treated with LPS alone, as well as cells treated with LPS plus reference dexamethasone at 10 μM item served as controls.\nFollowing 24 h of stimulation, cell supernatants were collected for the NO, and cytokine measurements. Levels of 2 cytokines (TNF-α, IL-6) were measured by an immunosorbent assay (U-PLEX Custom […] Cytokine, Mesoscale Discovery) according to the instructions of the manufacturer and evaluated in comparison to calibration curves provided in the kit. […] Absorbance was measured at 570 nm. Nitrosative stress was evaluated in the study samples in comparison to a NaNO2 standard curve. […]"}, "[2]": {"tested_on": "Cox (cytochrome oxidase)", "experiment": "Quantitative PCR of mitochondrial gene Cox", "format": "cell-based, mouse", "conditions": "1 μM and 10 μM, 1 h and 2 h treatment", "method": "The effect of Compound A or derivative thereof on the mRNA expression of genes related to plasticity (Arc, cFos, and Zif268) was determined as described. Cox (cytochrome oxidase) was used to evaluate if the derivative changes expression of mitochondrial genes.\nDetermination of gene expression was performed as previously described [Yang J, et al, Lactate promotes plasticity gene expression by potentiating NMDA signalling in neurons. Proc Natl Acad Sci USA. 2014. 111(33):12228-33]. Total RNA was isolated from cultured cells using Nucleospin RNA II kit (Macherey-Nagel) according to the manufacturer's instructions. The first strand of cDNA was synthesized from 100 ng of total RNA (60 min at 37° C. followed by 5 min at 95° C.) using a high-capacity RNA to cDNA reverse transcription system (Applied Biosystems). One-twentieth of the resulting cDNA was amplified by quantitative PCR (qPCR) with an ABI Prism 7900 system (Applied Biosystems). The PCR mix was composed of 6 ng of cDNA, 300 nM of forward and reverse primers in 10 μL of ix SYBR-Green PCR MasterMix (Applied Biosystems). Primer sequences were designed using Primer Express 3.0 software (Applied Biosystems) and oligonucleotides were synthesized by Microsynth."}, "[3]": {"experiment": "Metabolic stability in human liver microsomes", "format": "in vitro ADME", "conditions": "both sexes, pooled liver microsomes, pH 7.4, 0.5 mg/ml protein, read-out: T1/2 LM human", "method": "Sample type: pooled liver or intestine microsomes; Species: CD1-mouse (male), human (mixed gender) Time points: 0, 10, 20, 40, 60 min cofactors, and negative control;\nProtein content: 0.5 mg/ml: Replicates: 2 with cofactors, 1 without cofactors; Cofactors: NADPH (1 mM)+UDPGA (1 mM)+15 μg/ml alamethicin Buffer: 0.1 M phosphate buffer pH 7.4, 2 mM MgCl2; Spiking solvent: 50% DMSO ( 1/100 to incubation); Quenching solvent: 2-fold volume of 75% ACN, Control: midazolam disappearance rate\nThe study compounds were incubated with liver or intestine microsomes as specified above. The collected samples were stored at −20 C until thawed at room temperature, centrifuged and analyzed as presented below.\nThe samples were analysed by UPLC/HR-MS (with data dependent MS/MS mode) to monitor substrate depletion (and later optionally metabolite formation). The analytical method was optimised by using the parent compound for optimum chromatographic properties (peak shape and retention) and mass spectrometric ionisation. Disappearance rate of the study compound was estimated based on relative LC/MS peak areas (o min marked as 100%), and was used to calculate in vitro half-life and clearance (and in vivo extrapolation of hepatic clearance)."}, "[4]": {"tested_on": "TrkB receptor", "experiment": "Activation of TrkB receptor: phosphorylation in cortical neurons (WES capillary immunoassay)", "format": "cell-based, mouse", "method": "On the day of preparation (DIV1) cortical neurons were seeded on poly-D-lysine pre-coated 6-well plates at a density of 1.25*10^6 cells per well and cultured at 37° C.; 95% humidity and 5% CO2 until […] with a half medium exchange on DIV4-6. On DIV10 cells are treated with test item TI (SND118) and control Rh (7,8DHF) at different concentrations for 15 min. The experiment was carried out with n=6 technical replicates per condition, vehicle treated cells served as control. Cells were lysed in 150 μL cold RIPA buffer [50 mM Tris pH 7.4, 1% Nonidet P40, 0.25% Na-deoxy-cholate, 150 mM NaCl, 1 mM EDTA supplemented with freshly added 1 μM NaF, 0.2 mM Na-ortho-vanadate, 80 μM Glycerophosphate, protease (Calbiochem) and phosphatase (Sigma) inhibitor cocktail.\nPhosphorylation of the TrkB receptor was detected using the following rabbit anti-Tyr specific antibodies: anti-TrkB Y515, Y706/707 and Y816 and compared with total TrkB detected with anti-TrkB antibody (Abcam). Antibody dilutions and protein amounts were optimized for signal specificity.\nAutomated separation and immunostaining of total and phospho TrkB was carried out using a capillary-based immunoassay, WES™ (Proteinsimple®). Samples were applied to a 25 capillary cartridge with a 2 to 440 kDa matrix, at an optimized total protein concentration. Sample loading, separation, immunoprobing, washing, detection and quantitative data analysis were performed automatically by WES™ Western system (Compass software V 4.0.0). The areas under the curve were used for the analysis and the phosphorylated versus vehicle or total TrkB signal ratio was calculated and used for statistics."}}, "data": [{"compound": "O=c1cc(-c2ccc(CCCC[P+](c3ccccc3)(c3ccccc3)c3ccccc3)cc2)oc2c(O)c(O)ccc12", "note": "[SND118, 4-[4-(7,8-dihydroxy-4-oxo-chromen-2-yl)phenyl]butyltriphenylphosphonium bromide]", "values": [{"measurement": "level of IL-6 in response to LPS stimulation", "setting": "[1]", "value": "significantly decreased"}, {"measurement": "mRNA expression of Cox (cytochrome oxidase)", "setting": "[2]", "value": "unaffected"}, {"measurement": "half-life at 1 μM", "setting": "[3]", "value": 18, "unit": "min"}, {"measurement": "phospho Tyr706/707 signal normalized to the TrkB", "setting": "[4]", "value": "significant increase"}, {"measurement": "phosphorylation of the TrkB receptor at sites Tyr 515 and Tyr 816", "setting": "[4]; 1 and 2 μM", "value": "induced statistically significant phosphorylation"}, {"measurement": "phosphorylation of TrkB at Tyr residue 706/707 versus the vehicle", "setting": "[4]; SND118 2 μM", "value": "increased slightly"}]}]}
